Measured values: patent US12138273B2 (Propella Therapeutics, Inc., priority 2019, dated 2024)

Key:
[1] = dog, in vivo
Description: An additional study was done using dogs as the animal model instead of rats.

[2] = Beagle, dog, in vivo

| Structure (SMILES) | irritation at the injection site [1] | % F ([1]; male) [%] | measurable blood levels out to ([1]; male) [h] | AUCINF/Dose ([1]; male, im) | mean AUCINF following IM administration, corrected for dose and time units [2] [ng·h/mL] |
| --- | --- | --- | --- | --- | --- |
| CC(=O)O[C@H]1CC[C@@]2(C)C(=CC[C@@H]3[C@@H]2CC[C@]2(C)C(c4cccnc4)=CC[C@@H]32)C1 [abiraterone acetate] | irritating to the dogs at the injection site | 61.7 | 504 | 329 |  |
| C[C@]12CC[C@H](O)CC1=CC[C@@H]1[C@@H]2CC[C@]2(C)C(c3cccnc3)=CC[C@@H]12 [abiraterone, (3β)-17-(pyridin-3-yl) androsta-5, 16-dien-3-ol] |  |  |  |  | 105 |
